The nature of series [1]: Inhibition of rabbit full length skeletal muscle myosin 2 ATPase activity using Pre-formed rabbit skeletal muscle F-actin filaments and ATP incubated for 1 hr by CytoPhos reagent based ATPase assay. On the set-up: species or system Oryctolagus cuniculus.
Series [2] is filed under the species Oryctolagus cuniculus. Kind of series: Potency index, ratio of (S)-blebbistatin (S)-1 IC50 to compound IC50 for inhibition of rabbit full length skeletal muscle myosin 2 ATPase activity by CytoPhos reagent based ATPase assay.
Series [3] in a line: Aqueous solubility at steady-state in pH 7.4 PBS at 200 uM after 24 hrs by HPLC method. It counts as physicochemical. The settings on record: for solubility at 24 h, 200 µM: PBS, pH 7.4.
Series [4] is described as follows: Apparent permeability from apical to basolateral side in human Caco2 cells at 10 uM after 60 mins by HPLC-MS/MS analysis. The settings on record: Caco-2. In kind it is ADME, cell-based. A general note: Caco-2 cells form a polarised layer with tight junctions and transporters.
Series [5] is described as follows: Apparent permeability from basolateral to apical side in human Caco2 cells at 10 uM after 40 mins by HPLC-MS/MS analysis. In kind it is ADME, cell-based. The settings on record: Caco-2.
Series [6] is described as follows: Apparent permeability from apical to basolateral side in human Caco2 cells assessed as drug recovery at 10 uM after 60 mins by HPLC-MS/MS analysis. In kind it is ADME, cell-based. The settings on record: Caco-2, read-out: Drug recovery.
Series [7] in a line: Apparent permeability from basolateral to apical side in human Caco2 cells assessed as drug recovery at 10 uM after 40 mins by HPLC-MS/MS analysis. It counts as ADME, cell-based. The settings on record: Caco-2, read-out: Drug recovery.
Series [8] can be described thus: Photostability of the compound in PBS/MeOH at 20 uM under blue light irradiation at 488 nm assessed as compound degradation after 30 mins by fluorescence spectroscopic analysis. It counts as physicochemical. The settings on record: buffer, 0.5 h.
Series [9] can be described thus: Photostability of the compound in DMSO alone solvent assessed as compound degradation at 100 to 600 uM under irradiation at 390 to 470 nm up to 90 mins by HPLC analysis. In kind it is physicochemical. The settings on record: 1.5 h.
The nature of series [10]: Photostability of the compound in DMSO/H20 (1:1) solvent assessed as half life for compound degradation at 100 to 600 uM under irradiation at 390 to 470 nm by HPLC analysis. In kind it is physicochemical. Particulars: DMSO/H2O (1:1).
Series [11] in a line: Photostability of the compound in DMSO/H20 (1:1) solvent assessed as compound degradation at 100 to 600 uM under irradiation at 390 to 470 nm after mins by HPLC analysis. It counts as physicochemical. Particulars: DMSO/H2O (1:1); read-out: Drug degradation.

The IC50 is the concentration at which inhibition is half-maximal. Read a high IC50 as lower potency. The term solubility denotes the concentration that dissolves in the medium under given conditions. What is called Papp A→B is the apparent permeability from the apical to the basolateral side of a cell layer. Usually Papp B→A stands for the apparent permeability from the basolateral to the apical side of a cell layer. As usually defined, the half-life is how long it takes for the measured level to halve.

Values after ≈ are worked out from the molar mass of the structure shown.

Take `Cc1ccc2c(c1)C(=O)[C@]1(O)CCN(c3ccccc3)C1=N2`: the IC50 in [1] lay within 0.873 to 2.16 µM. Also, the Ratio IC50 in series [2] turned out to be 1. Moreover, the solubility in [3] (buffer, pH 7.4, 24 h, 200 µM) was 6.18 µM (≈ 1.81 µg/mL). The Papp A→B at 1 h, 10 µM in [4] was found to be 605 nm/s. The Papp B→A at 40 min, 10 µM in [5] was 192 nm/s. The recovery at 1 h, 10 µM in series [6] worked out at 66%. For the same compound, the recovery at 40 min, 10 µM in [7] was 66%. The Stability entry in series [8] and in series [9] was “Stable” throughout. The half-life at up to 600 µM in series [10] amounted to 14 min.

With `Cc1ccc2c(c1)C(=O)[C@]1(O)CCN(c3cccc(C(=O)O)c3)C1=N2`, the Ratio IC50 in [2] is < 0.02.

Compound `C=CC(=O)Oc1cccc(N2CC[C@@]3(O)C(=O)c4cc(C)ccc4N=C23)c1` showed an IC50 in series [1] of 57.6 µM. For the same compound, the Ratio IC50 in series [2] was 0.04.

The compound `Cc1ccc2c(c1)C(=O)[C@]1(O)CCN(c3ccc(O)cc3)C1=N2` had an IC50 in series [1] of 5.47 µM. In [2], the Ratio IC50 came to 0.16. The compound further had a solubility at 24 h, 200 µM in series [3] of 82.4 µM (≈ 25.4 µg/mL). Besides, in series [10], the half-life at up to 600 µM turned out to be 4.7 min.

Regarding `CCC(=O)Oc1cccc(N2CC[C@@]3(O)C(=O)c4cc(C)ccc4N=C23)c1`, the IC50 in [1] was 23.5 µM. In series [2], the Ratio IC50 worked out at 0.09.

With `C=CCOc1cccc(N2CC[C@@]3(O)C(=O)c4cc(C)ccc4N=C23)c1`, the concentration for half-maximal inhibition (IC50) in [1] was found to be 9.41 µM. In addition, in series [2], the Ratio IC50 worked out at 0.23. In addition, the concentration in solution in series [3] (solubility at 24 h, 200 µM) came to 2.83 µM (≈ 0.986 µg/mL). The half-life at up to 600 µM in [10] was found to be 15 min.

Consider `Cc1ccc2c(c1)C(=O)[C@]1(O)CCN(c3ccc4ccccc4c3)C1=N2`, for which, in [1], the IC50 was > 40 µM. Moreover, the Ratio IC50 in series [2] was < 0.02.

`Cc1ccc2c(c1)C(=O)[C@]1(O)CCN(c3cccc(C#N)c3)C1=N2`: the Ratio IC50 in [2] stood at 0.04.

On to `Cc1ccc2c(c1)C(=O)[C@]1(O)CCN(c3ccc4c(c3)NCC4)C1=N2`, for which the IC50 in series [1] turned out to be 7.7 µM. Also, the Ratio IC50 in series [2] is 0.11.

In the case of `C=CCN(CC=C)c1cccc(N2CC[C@@]3(O)C(=O)c4cc(C)ccc4N=C23)c1`, in [1], the IC50 was > 10.8 µM.

Regarding `Cc1ccc2c(c1)C(=O)[C@]1(O)CCN(c3ccc4cc[nH]c4c3)C1=N2`, the IC50 in series [1] was found to be 7.2 µM. The Ratio IC50 in series [2] came to 0.12.

On to `Cc1ccc2c(c1)C(=O)[C@]1(O)CCN(c3cccc(O)c3)C1=N2`, for which, in [2], the Ratio IC50 turned out to be 0.11. Also, the solubility at 24 h, 200 µM in series [3] was found to be 193 µM (≈ 59.5 µg/mL). Further, the Papp A→B at 1 h, 10 µM in series [4] is 285 nm/s. In addition, the Papp B→A at 40 min, 10 µM in [5] is 172 nm/s. In addition, the recovery at 1 h, 10 µM in series [6] worked out at 49%. Besides, the recovery at 40 min, 10 µM in series [7] was 70%. Further, the half-life at up to 600 µM in [10] turned out to be 11 min.

`C=CCOc1ccc(N2CC[C@@]3(O)C(=O)c4cc(C)ccc4N=C23)cc1`: the concentration for half-maximal inhibition (IC50) in series [1] was determined as 0.38 µM. Also, the Ratio IC50 in series [2] stood at 2.3. The solubility at 24 h, 200 µM in series [3] was 2.75 µM (≈ 0.958 µg/mL). Besides, in series [4], the Papp A→B at 1 h, 10 µM is 297 nm/s. For the same compound, the Papp B→A at 40 min, 10 µM in series [5] is 75.8 nm/s. For the same compound, in [6], the recovery at 1 h, 10 µM worked out at 32%. Also, the recovery at 40 min, 10 µM in series [7] was found to be 65%. Moreover, in series [10], the half-life at up to 600 µM came out at 8.8 min.

Regarding `CCC(=O)Nc1cccc(N2CC[C@@]3(O)C(=O)c4cc(C)ccc4N=C23)c1`, the IC50 in [1] is > 100 µM. The Ratio IC50 in series [2] is < 0.02.

For `Cc1ccc2c(c1)C(=O)[C@]1(O)CCN(c3cccc(N)c3)C1=N2`, the Ratio IC50 in series [2] is 0.15. Further, the solubility at 24 h, 200 µM in series [3] was found to be 186 µM (≈ 57.2 µg/mL). The Papp A→B at 1 h, 10 µM in [4] was determined as 627 nm/s. In addition, the basolateral-to-apical permeability (Papp B→A) at 40 min, 10 µM in [5] amounted to 262 nm/s. For the same compound, the recovery at 1 h, 10 µM in series [6] was found to be 79%. Moreover, the recovery at 40 min, 10 µM in series [7] was 74%. The half-life at up to 600 µM in series [10] stood at 13 min.

As for `Cc1ccc2c(c1)C(=O)[C@]1(O)CCN(c3ccc(N)cc3)C1=N2`, the Ratio IC50 in [2] turned out to be 0.19. Besides, in [3], the solubility at 24 h, 200 µM was > 200 µM. Also, in series [4], the Papp A→B at 1 h, 10 µM was determined as 694 nm/s. The Papp B→A at 40 min, 10 µM in [5] stood at 311 nm/s. For the same compound, the recovery at 1 h, 10 µM in series [6] stood at 85%. Also, in [7], the recovery at 40 min, 10 µM was 82%. The half-life at up to 600 µM in series [10] is 44 min.

On to `Cc1ccc2c(c1)C(=O)[C@]1(O)CCN(c3cccc(C(N)=O)c3)C1=N2`, for which, in series [2], the Ratio IC50 is < 0.02.

On to `Cc1ccc2c(c1)C(=O)[C@]1(O)CCN(c3ccc(OCc4ccccc4)cc3)C1=N2`, for which the IC50 in [1] was > 40 µM. Further, in series [2], the Ratio IC50 was < 0.02.

Turning to `Cc1ccc2c(c1)C(=O)[C@]1(O)CCN(c3ccc([N+](=O)[O-])cc3)C1=N2`, the Ratio IC50 in [2] worked out at 2.5. In series [3], this compound returned a solubility at 24 h, 200 µM of 31.7 µM (≈ 10.7 µg/mL). For the same compound, the Papp A→B at 1 h, 10 µM in [4] turned out to be 325 nm/s. In addition, the Papp B→A at 40 min, 10 µM in [5] came to 22.3 nm/s. Besides, in series [6], the recovery at 1 h, 10 µM is 34%. The recovery at 40 min, 10 µM in [7] amounted to 72%. The half-life at up to 600 µM in series [10] was > 90 min. Moreover, the degraded at up to 600 µM in series [11] stood at 33%.

For the compound `C=CC(=O)Nc1cccc(N2CC[C@@]3(O)C(=O)c4cc(C)ccc4N=C23)c1`, the 50% inhibitory concentration (IC50) in [1] is > 100 µM. The Ratio IC50 in series [2] was < 0.02.

The values are drawn from ChEMBL document CHEMBL4138080, “Improved synthesis and comparative analysis of the tool properties of new and existing D-ring modified (S)-blebbistatin analogs” (Eur J Med Chem, 2017).
